Assay results from patent publication US20140272066A1, “GLUTAMIC ACID DERIVATIVES” (Givaudan S.A., priority 2011, published 2014).

Assays:
[1] = Flavourist comparison of Béchamel sauce with cheese with and without compound; assay type: in vivo, human; settings: 200 ppm in Béchamel sauce with cheese; 4 flavourists
Method: A Béchamel sauce with cheese was prepared from 70 g of butter, 50 g of flower, 1000 g of milk, 5 g of sodium chloride, 0.3 g of MSG, 0.15 g of nutmeg powder, 0.25 g of black pepper and 80 g of cheese powder. A blanc roux was prepared from the butter and flower before adding the other ingredients.
A small group of flavourists (2 male, 2 female) compared the taste of the reference Béchamel sauce with cheese with that of a batch of the same Béchamel sauce with cheese containing 200 ppm of DL-threo-3-methylglutamic acid.

[2] = Flavourist taste panel, solution B (with compound) rated against reference solution A; assay type: in vivo, human; settings: 10 ppm compound in 0.5% NaCl and 0.03% MSG, vs solution A; scale -3 (much lower than base) to 3 (much higher); average of 4 flavourists
Method: Two solutions were prepared:
The samples were tasted by a small group of flavourists (2 male, 2 female, aged between 30 and 60). The intensity of the umami and salt taste of solution B was compared with that of the reference (solution A) and rated according to the following intensity scale:
The results (average of ratings given by the flavourists) were: […]

[3] = Flavourist comparison of bouillon with and without compound; assay type: in vivo, human; settings: 200 ppm in bouillon; 4 flavourists
Method: A bouillon mix was prepared from 155.0 g of sodium chloride, 157.0 g of dextrose monohydrate (ex Tapioca), 0.2 g of celery oleoresin, 0.3 g of oleoresin turmeric Vegex, 0.2 g of oleoresin coriander seed, 444.8 g maltodextrin 5-8 DE, 40.0 g vegetable oil soya bean refined, 30.0 g yeast standard light, 4.0 g of onion powder, 4.0 g of garlic powder, 0.5 g of white pepper and 164.0 g of potato starch.
32 g of the well-mixed ingredients was added to 1 L of boiling water and stirred until completely dissolved.
A small group of flavourists (2 male, 2 female) compared the taste of the reference bouillon with that of a batch of the same bouillon containing 200 ppm of DL-threo-3-methylglutamic acid.

[4] = Flavourist comparison of white sauce with and without compound; assay type: in vivo, human; settings: 200 ppm in white sauce; 4 flavourists
Method: A white sauce mix was prepared from 380 g of modified starch Prejel, 200 g of whey powder Esprion 300, 200 g of fat powder (ex DMV), 115 g of sodium chloride, 85.3 g of maltodextrin 14, 3 g of onion powder, 0.2 g of curcuma extract powder (ex turmeric), 1.5 g of white pepper and 15 g of probase high impact.
80 g of the well-mixed ingredients was added to 1 L of boiling water and stirred well.
A small group of flavourists (2 male, 2 female) compared the taste of the reference white sauce with that of a batch of the same white sauce containing 200 ppm of DL-threo-3-methylglutamic acid.

[5] = at concentrations comparable to MSG; cited from earlier work

Compound	Taste of test Béchamel sauce with cheese compared with reference [1]	Intensity Taste Salt (NaCl) [2]	Intensity Taste Umami [2]	Taste of test bouillon compared with reference bouillon [3]	Taste of test white sauce compared with reference sauce [4]	Umami taste [5]
CC(CC(=O)O)C(N)C(=O)O (racemic) [DL-threo-3-methylglutamic acid, DL-threo-3-methylglutamic Acid]	richer and more longlasting	0.33	1.00	more umami, had an enhanced body of salt and was more salivating	fuller and slightly more umami	–
CCCCCC(CC(=O)O)C(N)C(=O)O (stereo not shown) [2-amino-3-pentylpentanedioic acid, 2-amino-3-pentylpentanedioic Acid]	–	0.00	0.33	–	–	–
CCCC(CC(=O)O)C(N)C(=O)O (stereo not shown) [2-amino-3-propylpentanedioic acid, 2-amino-3-propylpentanedioic Acid]	–	0.33	0.33	–	–	–
N[C@@H](CC(=O)O)C(=O)O [aspartic acid]	–	–	–	–	–	hardly any umami taste
